Test results reported in publication PMC4526387 (Clinical cancer research : an official journal of the …, 2015).
Where two headings read alike, the source gives them in different places.

Experiments:
[1] = Phase I PK of everolimus in whole blood; format: in vivo, human; conditions: 6-hour collection interval, everolimus 10 mg daily
[2] = system: metastatic renal cell carcinoma (mRCC); assay: Randomized phase II: 6MPFS, PFS, response; format: in vivo, human
[3] = Randomized phase II: adverse events; format: in vivo, human
[4] = cited from earlier work
[5] = system: metastatic renal cell carcinoma (mRCC); conditions: subset with one prior VEGF-TKI; ref RECORD-1 trial; cited from earlier work
[6] = system: metastatic renal cell carcinoma (mRCC); format: in vivo, human; conditions: rise in MMP-9 and SCF and fall in SHBG and SAP
advanced solid tumors = conditions: 21 patients, cited from earlier work
[7] = system: metastatic renal cell carcinoma (mRCC); conditions: subset with one prior VEGF-TKI; ref AXIS trial; cited from earlier work

CO[C@H]1C[C@@H]2CC[C@@H](C)[C@@](O)(O2)C(=O)C(=O)N2CCCC[C@H]2C(=O)O[C@H]([C@H](C)C[C@@H]2CC[C@@H](OCCO)[C@H](OC)C2)CC(=O)[C@H](C)/C=C(\C)[C@@H](O)[C@@H](OC)C(=O)[C@H](C)C[C@H](C)/C=C/C=C/C=C/1C [everolimus]
overall mean concentration [1]: 17.8 ng/mL
6-month progression-free survival (6MPFS) ([2]; phase II): 30.30%
partial responses (number) ([2]; phase II): 2
median PFS amongst patients with liver metastasis ([2]; phase II exploratory analysis): 2.8 months
Abdominal pain % ([3]; % of arm): 10.4%
Acneiform rash % ([3]; % of arm): 10.4%
Anorexia % ([3]; % of arm): 23.9%
Back pain % ([3]; % of arm): 26.9%
Constipation % ([3]; % of arm): 22.4%
Cough % ([3]; % of arm): 20.9%
Diarrhea % ([3]; % of arm): 23.9%
Dyspnea % ([3]; % of arm): 31.3%
Epistaxis/Respiratory tract hemorrhage % ([3]; % of arm): 11.9%
Extremity pain % ([3]; % of arm): 13.4%
Fatigue % ([3]; % of arm): 44.8%
Fever % ([3]; % of arm): 17.9%
Headache % ([3]; % of arm): 16.4%
Insomnia % ([3]; % of arm): 16.4%
Lower extremity % ([3]; % of arm): 19.4%
Nausea % ([3]; % of arm): 23.9%
Nausea/Vomiting % ([3]; % of arm): 16.4%
Proteinuria % ([3]; % of arm): 14.9%
Pruritus % ([3]; % of arm): 7.5%
Rash % ([3]; % of arm): 22.4%
Skin changes % ([3]; % of arm): 20.9%
Stomatitis % ([3]; % of arm): 28.4%
Taste alteration % ([3]; % of arm): 14.9%
Elevated ALT % ([3]; laboratory, % of arm): 10.4%
Elevated AST % ([3]; laboratory, % of arm): 11.9%
Elevated alkaline phosphatise % ([3]; laboratory, % of arm): 14.9%
Elevated creatinine % ([3]; laboratory, % of arm): 11.9%
Hypercholesterolemia % ([3]; laboratory, % of arm): 28.4%
Hyperglycemia % ([3]; laboratory, % of arm): 25.4%
Hypertriglyceridemia % ([3]; laboratory, % of arm): 31.3%
Hyponatremia % ([3]; laboratory, % of arm): 11.9%
Low hemoglobin % ([3]; laboratory, % of arm): 37.3%
Thrombocytopenia % ([3]; laboratory, % of arm): 14.9%
Elevated ALT Grade 1/2 ([3]; laboratory, number of patients): 7
Elevated ALT Grade 3/4 ([3]; laboratory, number of patients): 0
Elevated ALT Grade 5 ([3]; laboratory, number of patients): 0
Elevated ALT Total ([3]; laboratory, number of patients): 7
Elevated AST Grade 1/2 ([3]; laboratory, number of patients): 8
Elevated AST Grade 3/4 ([3]; laboratory, number of patients): 0
Elevated AST Grade 5 ([3]; laboratory, number of patients): 0
Elevated AST Total ([3]; laboratory, number of patients): 8
Elevated alkaline phosphatise Grade 1/2 ([3]; laboratory, number of patients): 9
Elevated alkaline phosphatise Grade 3/4 ([3]; laboratory, number of patients): 1
Elevated alkaline phosphatise Grade 5 ([3]; laboratory, number of patients): 0
Elevated alkaline phosphatise Total ([3]; laboratory, number of patients): 10
Elevated creatinine Grade 1/2 ([3]; laboratory, number of patients): 5
Elevated creatinine Grade 3/4 ([3]; laboratory, number of patients): 3
Elevated creatinine Grade 5 ([3]; laboratory, number of patients): 0
Elevated creatinine Total ([3]; laboratory, number of patients): 8
Hypercholesterolemia Grade 1/2 ([3]; laboratory, number of patients): 19
Hypercholesterolemia Grade 3/4 ([3]; laboratory, number of patients): 0
Hypercholesterolemia Grade 5 ([3]; laboratory, number of patients): 0
Hypercholesterolemia Total ([3]; laboratory, number of patients): 19
Hyperglycemia Grade 1/2 ([3]; laboratory, number of patients): 12
Hyperglycemia Grade 3/4 ([3]; laboratory, number of patients): 5
Hyperglycemia Grade 5 ([3]; laboratory, number of patients): 0
Hyperglycemia Total ([3]; laboratory, number of patients): 17
Hypertriglyceridemia Grade 1/2 ([3]; laboratory, number of patients): 17
Hypertriglyceridemia Grade 3/4 ([3]; laboratory, number of patients): 4
Hypertriglyceridemia Grade 5 ([3]; laboratory, number of patients): 0
Hypertriglyceridemia Total ([3]; laboratory, number of patients): 21
Hyponatremia Grade 1/2 ([3]; laboratory, number of patients): 5
Hyponatremia Grade 3/4 ([3]; laboratory, number of patients): 3
Hyponatremia Grade 5 ([3]; laboratory, number of patients): 0
Hyponatremia Total ([3]; laboratory, number of patients): 8
Low hemoglobin Grade 1/2 ([3]; laboratory, number of patients): 19
Low hemoglobin Grade 3/4 ([3]; laboratory, number of patients): 6
Low hemoglobin Grade 5 ([3]; laboratory, number of patients): 0
Low hemoglobin Total ([3]; laboratory, number of patients): 25
Thrombocytopenia Grade 1/2 ([3]; laboratory, number of patients): 8
Thrombocytopenia Grade 3/4 ([3]; laboratory, number of patients): 2
Thrombocytopenia Grade 5 ([3]; laboratory, number of patients): 0
Thrombocytopenia Total ([3]; laboratory, number of patients): 10
Abdominal pain Grade 1/2 ([3]; number of patients): 5
Abdominal pain Grade 3/4 ([3]; number of patients): 2
Abdominal pain Grade 5 ([3]; number of patients): 0
Abdominal pain Total ([3]; number of patients): 7
Acneiform rash Grade 1/2 ([3]; number of patients): 7
Acneiform rash Grade 3/4 ([3]; number of patients): 0
Acneiform rash Grade 5 ([3]; number of patients): 0
Acneiform rash Total ([3]; number of patients): 7
Anorexia Grade 1/2 ([3]; number of patients): 15
Anorexia Grade 3/4 ([3]; number of patients): 1
Anorexia Grade 5 ([3]; number of patients): 0
Anorexia Total ([3]; number of patients): 16
Back pain Grade 1/2 ([3]; number of patients): 12
Back pain Grade 3/4 ([3]; number of patients): 6
Back pain Grade 5 ([3]; number of patients): 0
Back pain Total ([3]; number of patients): 18
Constipation Grade 1/2 ([3]; number of patients): 15
Constipation Grade 3/4 ([3]; number of patients): 0
Constipation Grade 5 ([3]; number of patients): 0
Constipation Total ([3]; number of patients): 15
Cough Grade 1/2 ([3]; number of patients): 13
Cough Grade 3/4 ([3]; number of patients): 1
Cough Grade 5 ([3]; number of patients): 0
Cough Total ([3]; number of patients): 14
Diarrhea Grade 1/2 ([3]; number of patients): 16
Diarrhea Grade 3/4 ([3]; number of patients): 0
Diarrhea Grade 5 ([3]; number of patients): 0
Diarrhea Total ([3]; number of patients): 16
Dyspnea Grade 1/2 ([3]; number of patients): 17
Dyspnea Grade 3/4 ([3]; number of patients): 4
Dyspnea Grade 5 ([3]; number of patients): 0
Dyspnea Total ([3]; number of patients): 21
Epistaxis/Respiratory tract hemorrhage Grade 1/2 ([3]; number of patients): 8
Epistaxis/Respiratory tract hemorrhage Grade 3/4 ([3]; number of patients): 0
Epistaxis/Respiratory tract hemorrhage Grade 5 ([3]; number of patients): 0
Epistaxis/Respiratory tract hemorrhage Total ([3]; number of patients): 8
Extremity pain Grade 1/2 ([3]; number of patients): 8
Extremity pain Grade 3/4 ([3]; number of patients): 1
Extremity pain Grade 5 ([3]; number of patients): 0
Extremity pain Total ([3]; number of patients): 9
Fatigue Grade 1/2 ([3]; number of patients): 24
Fatigue Grade 3/4 ([3]; number of patients): 6
Fatigue Grade 5 ([3]; number of patients): 0
Fatigue Total ([3]; number of patients): 30
Fever Grade 1/2 ([3]; number of patients): 10
Fever Grade 3/4 ([3]; number of patients): 2
Fever Grade 5 ([3]; number of patients): 0
Fever Total ([3]; number of patients): 12
Headache Grade 1/2 ([3]; number of patients): 10
Headache Grade 3/4 ([3]; number of patients): 1
Headache Grade 5 ([3]; number of patients): 0
Headache Total ([3]; number of patients): 11
Insomnia Grade 1/2 ([3]; number of patients): 11
Insomnia Grade 3/4 ([3]; number of patients): 0
Insomnia Grade 5 ([3]; number of patients): 0
Insomnia Total ([3]; number of patients): 11
Lower extremity Grade 1/2 ([3]; number of patients): 13
Lower extremity Grade 3/4 ([3]; number of patients): 0
Lower extremity Grade 5 ([3]; number of patients): 0
Lower extremity Total ([3]; number of patients): 13
Nausea Grade 1/2 ([3]; number of patients): 14
Nausea Grade 3/4 ([3]; number of patients): 2
Nausea Grade 5 ([3]; number of patients): 0
Nausea Total ([3]; number of patients): 16
Nausea/Vomiting Grade 1/2 ([3]; number of patients): 9
Nausea/Vomiting Grade 3/4 ([3]; number of patients): 2
Nausea/Vomiting Grade 5 ([3]; number of patients): 0
Nausea/Vomiting Total ([3]; number of patients): 11
Proteinuria Grade 1/2 ([3]; number of patients): 10
Proteinuria Grade 3/4 ([3]; number of patients): 0
Proteinuria Grade 5 ([3]; number of patients): 0
Proteinuria Total ([3]; number of patients): 10
Pruritus Grade 1/2 ([3]; number of patients): 4
Pruritus Grade 3/4 ([3]; number of patients): 1
Pruritus Grade 5 ([3]; number of patients): 0
Pruritus Total ([3]; number of patients): 5
Rash Grade 1/2 ([3]; number of patients): 15
Rash Grade 3/4 ([3]; number of patients): 0
Rash Grade 5 ([3]; number of patients): 0
Rash Total ([3]; number of patients): 15
Skin changes Grade 1/2 ([3]; number of patients): 11
Skin changes Grade 3/4 ([3]; number of patients): 3
Skin changes Grade 5 ([3]; number of patients): 0
Skin changes Total ([3]; number of patients): 14
Stomatitis Grade 1/2 ([3]; number of patients): 13
Stomatitis Grade 3/4 ([3]; number of patients): 6
Stomatitis Grade 5 ([3]; number of patients): 0
Stomatitis Total ([3]; number of patients): 19
Taste alteration Grade 1/2 ([3]; number of patients): 10
Taste alteration Grade 3/4 ([3]; number of patients): 0
Taste alteration Grade 5 ([3]; number of patients): 0
Taste alteration Total ([3]; number of patients): 10
half-life [4]: 26 to 38 h
mean trough concentration at steady state ([4]; patients who received 10 mg everolimus daily): 13.2 ng/mL
median PFS [5]: 5.4 months

COc1cc(C(=O)c2c(C)oc3c(OP(=O)([O-])[O-])c(OC)ccc23)cc(OC)c1OC.[Na+].[Na+] [BNC105P]
patients progression free at 6 months, selected population [6]: 60%
objective responses (advanced solid tumors): no objective responses
patients with stable disease (SD) as best response (advanced solid tumors): 4 patients
intravenous dose identified for further studies (advanced solid tumors; days 1 and 8 of a 21-day cycle): 16 mg/m^2

CNC(=O)c1ccccc1Sc1ccc2c(/C=C/c3ccccn3)n[nH]c2c1 [axitinib]
median PFS [7]: 4.8 months
